Data from patent USRE49735E1 (BRISTOL-MYERS SQUIBB COMPANY, priority 2010, dated 2023).
Values joined by “and” are separate entries in the source; they are usually repeats but may differ in a detail not shown here. Equal entries are not always repeated.

Each molecule was assayed against human mGluR5A (Homo sapiens, UniProt P41594) (assay: mGluR5 FLIPR Assay). Conditions: positive modulator activity; HEK293 (ZF) cells with human mGluR5A and rat GLAST; Ca++ response to ~EC10 glutamate.
Chain of human mGluR5A (P41594 21-1180 isoform P41594-2): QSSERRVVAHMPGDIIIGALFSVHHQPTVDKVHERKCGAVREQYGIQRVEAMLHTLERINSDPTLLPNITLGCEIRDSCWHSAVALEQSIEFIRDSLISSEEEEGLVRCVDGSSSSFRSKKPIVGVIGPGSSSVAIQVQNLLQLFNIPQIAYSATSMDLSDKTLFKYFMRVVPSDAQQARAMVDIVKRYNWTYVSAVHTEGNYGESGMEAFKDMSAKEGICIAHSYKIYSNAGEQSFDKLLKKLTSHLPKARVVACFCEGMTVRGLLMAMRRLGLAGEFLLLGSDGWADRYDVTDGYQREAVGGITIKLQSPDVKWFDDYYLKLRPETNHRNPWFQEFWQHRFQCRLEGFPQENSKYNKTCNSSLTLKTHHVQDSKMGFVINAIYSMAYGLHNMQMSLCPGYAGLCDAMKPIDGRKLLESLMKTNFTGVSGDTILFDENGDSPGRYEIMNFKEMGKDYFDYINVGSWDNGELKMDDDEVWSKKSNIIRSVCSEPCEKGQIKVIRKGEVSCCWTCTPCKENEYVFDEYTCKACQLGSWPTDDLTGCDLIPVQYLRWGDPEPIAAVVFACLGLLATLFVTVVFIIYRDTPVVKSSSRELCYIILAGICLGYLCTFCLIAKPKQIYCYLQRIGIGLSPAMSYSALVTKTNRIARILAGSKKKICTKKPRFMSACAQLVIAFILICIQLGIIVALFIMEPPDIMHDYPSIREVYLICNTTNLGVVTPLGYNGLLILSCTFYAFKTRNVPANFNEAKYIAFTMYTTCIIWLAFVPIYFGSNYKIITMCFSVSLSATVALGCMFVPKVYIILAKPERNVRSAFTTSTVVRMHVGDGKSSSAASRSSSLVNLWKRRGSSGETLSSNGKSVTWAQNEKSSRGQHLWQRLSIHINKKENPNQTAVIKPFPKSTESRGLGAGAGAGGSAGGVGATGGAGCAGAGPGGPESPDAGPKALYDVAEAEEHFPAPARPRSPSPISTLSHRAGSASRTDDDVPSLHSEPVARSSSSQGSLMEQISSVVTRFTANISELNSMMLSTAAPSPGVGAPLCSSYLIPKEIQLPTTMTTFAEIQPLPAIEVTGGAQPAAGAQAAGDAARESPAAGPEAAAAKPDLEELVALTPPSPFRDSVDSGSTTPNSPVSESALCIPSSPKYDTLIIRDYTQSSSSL
Type: cell-based
An EC50 of over 1000 nM was found for COc1cccc([C@H]2OC(=O)N[C@@H]2c2cccc(C#Cc3cnccc3OC)c2)c1 [Example 92, (4R,5R)-5-(3-Methoxyphenyl)-4-(3-((4-methoxypyridin-3-yl)ethynyl)phenyl)oxazolidin-2-one] in this work. An EC50 of over 1000 nM was found for O=C1N[C@@H](c2cncc(C#Cc3ccccc3)c2)[C@H](c2ccnnc2)O1 (single isomer, unassigned) [Example 321] in this work. An EC50 of under 100 nM was found for C[C@]1(c2cncc(C#Cc3ccccc3)c2)NC(=O)O[C@H]1c1cc(F)ccc1F (racemic) [Example 405, (+/−)-5-(2,5-Difluorophenyl)-4-methyl-4-(5-(phenylethynyl)pyridin-3-yl)oxazolidin-2-one] in this work. An EC50 of over 1000 nM was found for COc1cccc([C@@H]2OC(=O)N[C@H]2c2cccc(C#Cc3cc(F)cc(F)c3)c2)c1 [Example 124, (4S,5S)-4-(3-((3,5-difluorophenyl)ethynyl)phenyl)-5-(3-methoxyphenyl)oxazolidin-2-one] in this work. An EC50 of over 1000 nM was found for O=C1N[C@@H](c2cccc(C#Cc3ccccc3)n2)[C@H](c2ccc(F)cc2F)O1 (single isomer, unassigned) [Example 310] in this work. An EC50 of under 100 nM was found for O=C1N[C@H](c2ccnc(C#Cc3ccccc3)n2)[C@@H](c2cccc(F)c2)O1 [Example 275] in this work. An EC50 of under 100 nM was found for COc1cccc([C@H]2OC(=O)N[C@@H]2c2cccc(C#Cc3ccccc3F)c2)c1 [Example 121, (4R,5R)-4-(3-((2-fluorophenyl)ethynyl)phenyl)-5-(3-methoxyphenyl)oxazolidin-2-one] in this work. An EC50 of over 1000 nM was found for O=C1N[C@H](c2cncc(C#Cc3cccc(Cl)c3)c2)[C@@H](c2c(F)cccc2F)O1 [Example 281] in this work. An EC50 of over 1000 nM was found for C[C@@]1(c2cncc(C#Cc3ccccc3)c2)NC(=O)O[C@@H]1c1ccccc1 [Example 225] in this work. An EC50 of under 100 nM was found for O=C1N[C@H](c2cncc(C#Cc3ccccc3)c2)[C@@H](c2ccc(F)c(F)c2)O1 [Example 172] in this work. An EC50 of over 1000 nM was found for COc1ccccc1[C@@H]1OC(=O)N[C@@H]1c1cncc(C#Cc2ccccc2)c1 (single isomer, unassigned) [Example 335] in this work. An EC50 of over 3000 nM was found for O=C1N[C@H](c2cncc(C#Cc3cccc(C(F)(F)F)c3)c2)[C@@H](c2cccc(F)c2)O1 [Example 402, (4R,5R)-5-(3-fluorophenyl)-4-(5((3-(trifluoromethyl)phenyl)ethynyl)pyridin-3-yl)oxazolidin-2-one] in this work. An EC50 of under 100 nM was found for COc1cccc([C@H]2OC(=O)N[C@@H]2c2cccc(C#Cc3ccc(F)cc3)c2)c1 [Example 131, (4R,5R)-4-(3-((4-fluorophenyl)ethynyl)phenyl)-5-(3-methoxyphenyl)oxazolidin-2-one] in this work. An EC50 of over 1000 nM was found for COc1ncc(C#Cc2ccccc2)cc1[C@H]1NC(=O)O[C@@H]1c1cc(F)ccc1F [Example 303, (4R,5R)-5-(2,5-Difluorophenyl)-4-(2-methoxy-5-(phenylethynyl)pyridin-3-yl)oxazolidin-2-one] in this work. An EC50 of under 100 nM was found for C[C@]1(c2ccccc2)OC(=O)N[C@@H]1c1cncc(C#Cc2ccccc2)c1 [Example 227] in this work. An EC50 of 100 to 1000 nM was found for C[C@@]1(c2cncc(C#Cc3ccccc3)c2)NC(=O)O[C@H]1c1ccccc1 (single isomer, unassigned) [Example 137] in this work. An EC50 of over 1000 nM was found for COc1cccc([C@H]2OC(=O)N[C@@H]2c2cccc(C#Cc3ccc(F)cn3)c2)c1 [Example 195] in this work. An EC50 of over 1000 nM was found for O=C1N[C@@H](c2nccc(C#Cc3ccccc3)n2)[C@H](c2cccc(F)c2)O1 [Example 274] in this work. An EC50 of over 1000 nM was found for O=C1N[C@@H](c2cccc(C#Cc3ccccc3)n2)[C@H](c2ccccc2)O1 (single isomer, unassigned) [Example 11] in this work. In the case of COc1cccc([C@H]2OC(=O)N[C@@H]2c2cccc(C#Cc3ccccc3)c2)c1 [Example 1, (+)-(4R,5R)-5-(3-Methoxyphenyl)-4-(3-(phenylethynyl)phenyl)oxazolidin-2-one], the EC50 is reported as < 100 nM and 39 nM. An EC50 of over 1000 nM was found for O=C1N[C@@H](c2cncc(C#Cc3ccccc3)c2)[C@@H](c2cccc(Cl)c2Cl)O1 (single isomer, unassigned) [Example 332] in this work.
